Columns and labels:
[1] = test system: senescence-accelerated model mice (SAMP8); assay: Motor activities of senescence-accelerated model mice (SUPERMEX); format: in vivo, mouse; conditions: for Motor activities (Count) / Motor activities, relative proportion to the control group (control = 100): feedstuff containing 0.4%, 11th month after start of test; for Motor activities (Count): average from 16 o'clock to 9 o'clock next morning, n=4 to 7; for Motor activities, relative proportion to the control group (control = 100): control group level taken as 100; for Inhibition of deterioration of the motor activity (in words): ingestion with feedstuff containing 0.4%
Text: (§1) Three groups were set as follows. One is a group, to which feedstuff (CE-2, a product of CLEA Japan, Inc.) containing 0.4% of reduced coenzyme Q10 produced in Production Example 1 (containing about 1% by weight of oxidized coenzyme Q10) was given. Another group is a group, to which feedstuff (CE-2, a product of CLEA Japan, Inc.) containing 0.4% of commercially-available oxidized coenzyme Q10 (100% oxidized coenzyme Q10, a product of Kaneka Corporation) was given. The rest is a control group, to which only basic feedstuff (CE-2, a product of CLEA Japan, Inc.) was given. Each group consisted of 8 to 10 senescence-accelerated model mice (SAMP8, 3-week old, male). Each group was allowed free access to the feedstuff. During the test period, measurements of motor activities and recording of the number of dead mice were periodically performed. The dose of reduced and oxidized coenzyme Q10 as estimated from the feed consumption and animal body weight corresponded to about 300 to 500 mg/kg/day.
(§2) Results are illustrated in Tables 1 and 2. Table 1 illustrates the survival rates in the control group, the reduced coenzyme Q10-ingested group, and the oxidized coenzyme Q10-ingested group at the 13th month after the start of the test. Each data consists of n=8 to 10. The survival rate was assayed by the Kaplan-Meier method. The symbol “*” expresses that there is a significant difference relative to the control group at the degree of risk of 5%. Table 2 illustrates averages of motor activities (measuring apparatus: SUPERMEX, a product of Muromachi machinery) over a period from 16 o'clock to 9 o'clock in the morning of next day, and the relative proportions to the control group, estimated by assuming the level of the control group as 100. The data illustrated in Table 2 are values for each of the control group, the reduced coenzyme Q10-ingested group, and the oxidized coenzyme Q10-ingested group at the 11th month after the start of the test. Each data consist of n=4 to 7, and significant difference was tested by t-test.

[2] = test system: senescence-accelerated model mice (SAMP8); assay: Life extending effect for a senescence-accelerated model mouse (survival rate); format: in vivo; conditions: for Survival Rate (%): SAMP8 male mice, feedstuff containing 0.4% (about 300 to 500 mg/kg/day), 13th month after start of test, Kaplan-Meier, n=8 to 10; for Extension of a life span (in words): SAMP8 mice, ingestion with feedstuff containing 0.4%
Text: In order to evaluate these life extension effects, a special senescence-accelerated model mouse (for example, SAMP8), which has a shorter lifetime than a common mouse, may be used as a model for evaluations in vivo, for example. […] This mouse is very useful model for evaluating effects over a life span. The aging states shown in this mouse extremely resembles the aging states of humans, and is also useful to evaluate the health condition of humans in a senectitude.
as §1, §2

rats [3] = conditions: every day over 52 weeks at 1,200 mg/kg/day; cited from earlier work
mice = conditions: cited from earlier work
rats [4] = conditions: rats bred with unsaturated fatty acid-enriched feed; cited from earlier work

COC1=C(OC)C(=O)C(C/C=C(\C)CC/C=C(\C)CC/C=C(\C)CC/C=C(\C)CC/C=C(\C)CC/C=C(\C)CC/C=C(\C)CC/C=C(\C)CC/C=C(\C)CCC=C(C)C)=C(C)C1=O [Oxidized coenzyme Q10, oxidized coenzyme Q10]
Motor activities (Count) [1]: 12754 Count | Motor activities, relative proportion to the control group (control = 100) [1]: (119) | Inhibition of deterioration of the motor activity (in words) [1]: slightly improved | Survival Rate (%) [2]: 40% | Extension of a life span (in words) [2]: slightly improved

COc1c(O)c(C)c(C/C=C(\C)CC/C=C(\C)CC/C=C(\C)CC/C=C(\C)CC/C=C(\C)CC/C=C(\C)CC/C=C(\C)CC/C=C(\C)CC/C=C(\C)CCC=C(C)C)c(O)c1OC [Reduced coenzyme Q10, reduced coenzyme Q10]
Motor activities (Count) [1]: 17520 Count | Motor activities, relative proportion to the control group (control = 100) [1]: (163) | Inhibition of deterioration of the motor activity (in words) [1]: inhibition of deterioration of the motor activity | Survival Rate (%) [2]: 75% | Extension of a life span (in words) [2]: remarkable extension of a life span

COC1=C(OC)C(=O)C(C/C=C(\C)CC/C=C(\C)CC/C=C(\C)CC/C=C(\C)CC/C=C(\C)CC/C=C(\C)CC/C=C(\C)CC/C=C(\C)CC/C=C(\C)CCC=C(C)C)=C(C)C1=O [coenzyme Q10]
Toxic effect in chronic toxicity test (rats [3]): no toxic effect was observed

ubiquinone
Effect on life span of mice (mice): did not affect the life span of mice | Effect on life span of rats (rats [4]): extended the life span of the rat
